Measured values as given in the supplement of paper PMC13380429.

Key:
Settings in all cases: 72 h
HepG2 [1] = experiment: drug sensitivity score (DSS) for viability; higher = more toxic; extreme values may be limits of the assay
Calu-3 [2] = experiment: as above
Vero E6 [3] = experiment: as above
U2OS [4] = experiment: as above
HepG2 [5] = experiment: cell viability relative to DMSO; higher = less toxic
Calu-3 [6] = experiment: as above
Vero E6 [7] = experiment: as above
Caco-2 [8] = experiment: as above
U2OS [9] = experiment: as above
Caco-2 [10] = experiment: drug sensitivity score (DSS) for viability; higher = more toxic; extreme values may be limits of the assay
Vero E6 [11] = experiment: relative viability EC50 (midpoint between 100% and the lowest measured viability); higher = less toxic
HepG2 [12] = experiment: as above
U2OS [13] = experiment: as above
Calu-3 [14] = experiment: as above

SMILES	drug sensitivity score (HepG2 [1])	drug sensitivity score (Calu-3 [2])	drug sensitivity score (Vero E6 [3])	drug sensitivity score (U2OS [4])	cell viability (HepG2 [5]; 1 nM) [%]	cell viability (HepG2 [5]; 10 nM) [%]	cell viability (HepG2 [5]; 100 nM) [%]	cell viability (HepG2 [5]; 1000 nM) [%]	cell viability (HepG2 [5]; 10000 nM) [%]	cell viability (Calu-3 [6]; 1 nM) [%]	cell viability (Calu-3 [6]; 10 nM) [%]	cell viability (Calu-3 [6]; 100 nM) [%]	cell viability (Calu-3 [6]; 1000 nM) [%]	cell viability (Calu-3 [6]; 10000 nM) [%]	cell viability (Vero E6 [7]; 1 nM) [%]	cell viability (Vero E6 [7]; 10 nM) [%]	cell viability (Vero E6 [7]; 100 nM) [%]	cell viability (Vero E6 [7]; 1000 nM) [%]	cell viability (Vero E6 [7]; 10000 nM) [%]	cell viability (Caco-2 [8]; 1 nM) [%]	cell viability (Caco-2 [8]; 10 nM) [%]	cell viability (Caco-2 [8]; 100 nM) [%]	cell viability (Caco-2 [8]; 1000 nM) [%]	cell viability (Caco-2 [8]; 10000 nM) [%]	cell viability (U2OS [9]; 1 nM) [%]	cell viability (U2OS [9]; 10 nM) [%]	cell viability (U2OS [9]; 100 nM) [%]	cell viability (U2OS [9]; 1000 nM) [%]	cell viability (U2OS [9]; 10000 nM) [%]	drug sensitivity score (Caco-2 [10])	relative viability EC50 (Vero E6 [11]) [nM]	relative viability EC50 (HepG2 [12]) [nM]	relative viability EC50 (U2OS [13]) [nM]	relative viability EC50 (Calu-3 [14]) [nM]
O=C(O)c1cc(-c2ccccc2)nc2ccccc12 [cinchophen]	0.2	0	0	0																														
Cc1cc(-c2ccc(/N=N/c3ccc4c(S(=O)(=O)O)cc(S(=O)(=O)O)c(N)c4c3O)c(C)c2)ccc1/N=N/c1ccc2c(S(=O)(=O)O)cc(S(=O)(=O)O)c(N)c2c1O [evans-blue]	4.9	1	4.2	4.2	102	89.6	84.2	86.5	52.6	92.8	101	105	102	71.9	103	106	94	91.6	47.9	96.7	88.9	104	97.9	51.1	99	98.6	95.1	86.3	53.7	2.8	1920			
O=C(O)CCC(=O)c1ccc(-c2ccccc2)cc1 [fenbufen]	0	0	0	0																														
Cc1cccc(C(=O)O)c1O [hydroxytoluic-acid]	0		0	0	90.6	93.6	87.1	88.5	104						108	104	104	105	99						96.8	99.3	102	108	104		> 10000	> 10000	> 10000	
CC(=O)NC[C@H]1CN(c2ccc(N3CCOCC3)c(F)c2)C(=O)O1 [linezolid]	0		0	0																														
CCNCCS(=O)(=O)NC[C@@]1(c2ccccc2)SC(NC(=O)C(C)(C)C)=NN1C(=O)C(C)(C)C [litronesib]	23.3	2.8	13.9	15.5	89.4	72.9	35.9	34.7	33.6	95.1	91.9	87	84.3	81.2	97	107	82.9	38.8	41.9	98.1	91	62.9	67.9	62.2	104	96	58	49.7	44.8	12.7	146	11.9	48.8	> 10000
COc1ccc(OC)c([C@@H](O)CNC(=O)CN)c1 [midodrine]	0	0	0	0	109	102	118	99.1	109	89.1	98.7	95.7	95.6	98.3	102	97.8	106	95.8	108						99.1	104	100	106	105		> 10000	> 10000	> 10000	> 10000
CO[C@@]12[C@H](COC(N)=O)C3=C(C(=O)C(C)=C(N)C3=O)N1C[C@@H]1N[C@@H]12 [mitomycin-C]	16.7	2.6	5.5	2.6																														
CC(C)(O)c1ccccc1CC[C@@H](SCC1(CC(=O)O)CC1)c1cccc(/C=C/c2ccc3ccc(Cl)cc3n2)c1 [montelukast]	0	0	0	0																														
CCCCN(Cc1ccc(C(=O)NO)cc1)C(=O)Nc1ccccc1 [nexturastat-A]	4.7	4.4	2.3	5.1	110	105	97.7	90	43.9	89.3	107	98.9	88	51.7	96.2	94.5	96.7	99.4	56.6	101	98.8	109	92.3	52.3	98.1	102	99.3	90.1	36.6	3.8		1830	1950	
CCN(CC)CC#CCOC(=O)C(O)(c1ccccc1)C1CCCCC1 (configuration not stated) [oxybutynin]	0	0	0	0																														
Cc1cc(-c2nc3cc(F)ccc3s2)ccc1NC(=O)[C@@H](N)CCCCN [phortress]	20	1.1	0	0	95.6	107	86.3	3.3	1.6	102	99.9	97.6	91.3	79.9	92.3	95.8	94.4	97.2	107	100	100	93.3	92.2	73.5	97.9	93.9	97.5	95.2	93.6	1.6	> 10000	208	> 10000	> 10000
COc1cccc2c1c(O)c(C(=O)N(C)c1ccc(C(F)(F)F)cc1)c(=O)n2C [tasquinimod]	0		0		114	104	105	98.9	102						94.9	98.9	96.7	93	93.9												> 10000	> 10000		
